Laboratory results published in patent US8372950B2, “IgG binding peptide” (Kagoshima University, priority 2006, dated 2013).
pKd: −log10 of the molar value. Positions of bridges follow the written chain, without caps; N, C: chain ends. Residues, ends and D or L forms follow the SMILES beside them. No end group written: not given here. *: point of attachment. Biotin = O=C1N[C@H]2[C@H](CS[C@H]2CCCCC(=O)*)N1; Ahx = NCCCCCC(=O)O

Tests used:
human IgG [1] = experiment: ELISA assay of biotinylated synthetic peptides on human IgG; type: binding; conditions: FIG. 6; for binding to human IgG: biotinylated peptide
Protocol: (§1) The binding activity of the thus obtained biotinylated synthetic peptides to human IgG was assayed by an ELISA assay. The ELISA assay was conducted basically in a manner similar to that in Example 1. Specifically, wells coated with human IgG (100 ng/50 μl/well) were blocked by the addition of 0.5% BSA. A biotinylated synthetic peptide and alkaline phosphatase-labeled streptavidin (SA-AP) were mixed in advance at a molar ratio of 4:1 and then the mixture was added to the well, followed by 1 hour of reaction. Para-nitrophenyl phosphate (Wako) was used for color development. Detection was carried out by measuring absorbance at 405 nm. As a positive control of human IgG, the Fc fragment of hIgG was used. As other control proteins, human IgA and IgE, mouse IgG, IgA, and IgE, hTF, fetal bovine serum (FBS), HSA, BSA, and gelatin were used.

[2] = test system: human IgG isotypes (hIgG1 to hIgG4); experiment: ELISA assay of biotinylated synthetic peptides on human IgG isotypes; type: binding; conditions: FIG. 7
Protocol: as §1
Furthermore, the binding activity of the biotinylated synthetic peptides to human IgG isotypes (hIgG1 to hIgG4), was assayed similarly by an ELISA assay. As a control protein of human IgG, BSA was used.

human IgG [3] = experiment: SPR kinetic analysis of binding between synthetic peptides and human IgG; conditions: for association rate constants (ka) / dissociation rate constants (kd) / pKd: biotinylated peptide immobilized on sensor chip SA, human IgG as analyte, 25° C.; for pKd: read-out: Dissociation constants (Kd)
Protocol: Binding between the synthetic peptide IMGpep-1, IMGpep-1E6Q, IMGpep-4, or IMGpep-4K6R and human IgG was subjected to kinetic analysis of binding using surface plasmon resonance (SPR). SPR analysis was carried out using BIAcore2000 (BIAcore) at 25° C. Necessary reagents and sensor chips were purchased from BIAcore and then used. A 50 μM solution (pH 5) of each of four biotinylated synthetic peptides (IMGpep-1, IMGpep1E6Q, IMGpep4, and IMGpep-4K6R) was injected over a sensor chip SA, so as to immobilize the peptide on the chip. The amount of each peptide to be immobilized was adjusted so that the RU (response unit) ranged from 1500 to 2000. Subsequently, human IgG (analyte) was injected at a flow rate of 10 μl/min and at various concentrations (660 nM, 330 nM, 165 nM, 82 nM, and 41 nM) through flow cells with the aforementioned sensor chips SA on which the biotinylated-peptides had been immobilized. Binding reaction between human IgG and the peptides was measured. Thereafter, washing with running buffer (HBS-T) was conducted and then dissociation reaction was measured. For washing/elution of bound analytes from the sensor chips, 0.2 M glycine-HCl buffer (pH 2.7) was used. Binding parameters were analyzed using BIA evaluation Version 3.2 software.

human IgG [4] = experiment: immunoprecipitation of human IgG with peptide- or phage-immobilized magnetic beads; type: binding; conditions: immobilized on magnetic beads, FIG. 9; for immunoprecipitated human IgG: western blotting
Protocol: The above cloned T7 phage G-1 (1.0×10^12 pfu) subjected to ultracentrifuge purification or a synthetic peptide IMGpep-1 (150 nmol) was immobilized on 3 mg of tosyl-activated M450 Dynabeads magnetic beads (Dynal) via covalent binding to the terminal amino group according to the protocols recommended by the manufacturer. The beads were blocked with a PBS solution containing 0.5% BSA and then added to 1 ml of hIgG/BSA/PBS (10 μg/ml hIgG and 1 mg/ml BSA), followed by 1 hour of reaction at room temperature while mixing the solution via stirring. Beads were washed 3 times with PBST, SDS-sample buffer was added thereto, and then SDS-PAGE fractionation was carried out. Subsequently, they were subjected to western blotting analysis using a biotinylated anti-hIgG goat polyclonal antibody (Goat Anti-hIgG-pAb-biotin; Pharmingen) and SA-HRP, and then human IgG immunoprecipitated by binding to beads was detected.
Furthermore, immunoprecipitation reaction was similarly carried out using phage clones G-1 415 or IMGpep-2 instead of phage G-1 or IMGpep-1 to detect human IgG. Here, the phage clone G-1 415 (Novagen) is a phage displaying G-1 peptide at all the 415 G10 proteins composing the capsid of T7 phage. Moreover, immunoprecipitation reaction and detection were similarly carried out using an anti-hIgG goat (Fab′)2 fragment, wild-type T7 phage, and BSA, as a control of phage G-1 or IMGpep-1.

IgG antibody = conditions: literature (DeLano et al.; Dias et al.); cited from earlier work
Fc fragment of hIgG = experiment: ELISA assay of biotinylated synthetic peptides on Fc fragment; type: binding, human; conditions: biotinylated peptide, FIG. 6
Protocol: as §1

anti-HER2 human IgG = target: T1, anti-HER2 human IgG (Homo sapiens, UniProt P01857); experiment: separation on IMGpep-4K6R-immobilized column; type: binding; conditions: untreated anti-HER2 human IgG sample
T1 construct: purchased Herceptin
T1 sequence (P01857 1-330 isoform P01857-1, other chains not shown): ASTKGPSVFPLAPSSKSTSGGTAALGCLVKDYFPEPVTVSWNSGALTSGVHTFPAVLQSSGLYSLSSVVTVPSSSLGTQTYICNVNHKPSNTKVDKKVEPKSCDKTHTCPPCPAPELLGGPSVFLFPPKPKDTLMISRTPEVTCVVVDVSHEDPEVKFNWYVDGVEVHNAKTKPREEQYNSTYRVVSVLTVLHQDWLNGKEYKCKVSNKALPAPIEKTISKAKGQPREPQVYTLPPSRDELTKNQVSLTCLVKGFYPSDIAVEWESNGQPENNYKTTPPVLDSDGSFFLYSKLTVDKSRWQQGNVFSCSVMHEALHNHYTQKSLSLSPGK
Protocol: Moreover, a biotinylated IMGPep-4K6R peptide (biotin-spacer-[…] (SEQ ID NO: 11)) solution (500 μM, 1 ml) was injected to a HiTrap Streptavidin HP column (GE Healthcare) to prepare the column in which IMGPep-4K6R was immobilized. The antibody sample was injected at a flow rate of 0.4 ml/min to the IMGPep-4K6R-immobilized column. Gradient elution was carried out using from 20 mM phosphate buffered saline (PBS, pH 7.0) containing 0.1 M NaCl to 0.1M glycine-HCl (pH 2.5) containing 0.1 M NaCl.

human IgG MRA = target: T2, human IgG MRA (Homo sapiens, UniProt P01857); experiment: immunoprecipitation of MRA fractions with IMGpep-4K6R peptide; type: binding
T2 construct: purchased Chugai Pharmaceutical
T2 sequence (P01857 1-330 isoform P01857-1, other chains not shown): as above
Protocol: An immunoprecipitation experiment using an IMGpep-4K6R peptide was conducted by a method similar to that employed in Example 8 for each of an untreated MRA sample, an acid-treated MRA sample (acid treated for 10 minutes at pH 2.2 and 4° C.), a flow-through fraction obtained by passing an acid-treated MRA sample through a biotinylated IMGPep-4K6R peptide-immobilized column, and a purified acid-denatured MRA sample (an adsorbed fraction obtained by passing a human IgG sample subjected to 10 minutes of acid treatment at pH 2.2 and 4° C. through an IMGpep-4K6R peptide-immobilized column). IgG precipitated with the peptide immobilized on magnetic beads was subjected to 12.5% SDS-PAGE and then to CBB staining, and then observed.

human MRA (IgG) = target: T3, human MRA (IgG) (Homo sapiens, UniProt P01857); experiment: dot blotting detection of human MRA (IgG) on nitrocellulose membranes; type: binding
T3 construct: purchased Chugai Pharmaceutical
T3 sequence (P01857 1-330 isoform P01857-1, other chains not shown): as above
Protocol: Specifically, acid-treated human MRA (IgG) and untreated human MRA (IgG) were spotted on nitrocellulose membranes in an amount of 1.5 ng, 3 ng, 6 ng, 12.5 ng, 25 ng, 50 ng, and 100 ng per spot. The membranes were dried for 5 minutes and then 0.5% BSA was added for blocking for 2 hours at room temperature. Here, acid-treated human MRA was prepared by adding 10 μl of 1 M glycine-HCl (pH 2.8) to 100 μl of humanized anti-human IL-6 receptor IgG antibody (MRA) (2000 μg/ml, PBS solution), carrying out incubation at 40° C. for 10 minutes, and then neutralizing it by the addition of 30 μl of 1 M Tris-HCl (pH 8.7).
The mixture was added to the membranes blocked as described above, followed by 1 hour of reaction. After 3 times of washing with PBS containing 0.1% Tween20, a chemiluminescence reagent (Chemi-Lumi One, Nakalai Tesque) was added. Images were analyzed for detection using a LAS-1000 Image Analyzer (Fuji Film).

Row | Compound | binding activity to human IgG1, IgG2, IgG3, and IgG4 [2] | association rate constants (ka) (human IgG [3]) [M⁻¹ s⁻¹] | dissociation rate constants (kd) (human IgG [3]) [s⁻¹] | pKd (human IgG [3]) | binding to human IgG (human IgG [1]) | also measured
1 | CC(C)C[C@@H]1NC(=O)CNC(=O)[C@H](Cc2c[nH]c3ccccc23)NC(=O)[C@H](CCC(N)=O)NC(=O)[C@H](CO)NC(=O)[C@H](CCCNC(=N)N)NC(=O)[C@H](Cc2c[nH]c3ccccc23)NC(=O)[C@H](Cc2ccc(O)cc2)NC(=O)CNC(=O)[C@@H](NC(=O)CNC(=O)CCCCCNC(=O)CCCC[C@@H]2SC[C@@H]3NC(=O)N[C@@H]32)CSSC[C@@H](C(=O)NCC(=O)O)NC1=O [IMGpep-1E6Q] ({Biotin-Ahx}-GCGYWRSQWGLCG-OH; disulfide 2-12) | strong binding activity | 15000 | 0.00031 | 7.68 | – | binding activity compared with the original peptides IMGpep-1 and IMGpep-4 (human IgG [1]): significantly and drastically increased; binding activity to human IgG1 to IgG4 relative to IMGpep-1 and IMGpep-4 [2]: increase to a greater extent
2 | GCTGFWEREWGLCG [IMGpep-2] | – | – | – | – | – | immunoprecipitated human IgG (human IgG [4]): clearly observed
3 | DCAWHLGELVWCT [Fc-III] | – | – | – | – | – | pKd (IgG antibody): 6.73
4 | CC(C)C[C@@H]1NC(=O)CNC(=O)[C@H](Cc2c[nH]c3ccccc23)NC(=O)[C@H](C)NC(=O)[C@H](CCCCN)NC(=O)[C@@H]2CCCN2C(=O)[C@H](Cc2c[nH]c3ccccc23)NC(=O)[C@H](Cc2ccc(O)cc2)NC(=O)CNC(=O)[C@H]([C@@H](C)O)NC(=O)[C@@H](NC(=O)CNC(=O)CCCCCNC(=O)CCCC[C@@H]2SC[C@@H]3NC(=O)N[C@@H]32)CSSC[C@@H](C(=O)NCC(=O)O)NC1=O [IMGpep-4] ({Biotin-Ahx}-GCTGYWPKAWGLCG-OH; disulfide 2-13) | strong binding activity | 14000 | 0.00041 | 7.55 | specifically bound to human IgG | binding to the Fc fragment of human IgG (Fc fragment of hIgG): bound to the Fc fragment of human IgG
5 | CC(C)C[C@@H]1NC(=O)CNC(=O)[C@H](Cc2c[nH]c3ccccc23)NC(=O)[C@H](C)NC(=O)[C@H](CCCNC(=N)N)NC(=O)[C@@H]2CCCN2C(=O)[C@H](Cc2c[nH]c3ccccc23)NC(=O)[C@H](Cc2ccc(O)cc2)NC(=O)CNC(=O)[C@H]([C@@H](C)O)NC(=O)[C@@H](NC(=O)CNC(=O)CCCCCNC(=O)CCCC[C@@H]2SC[C@@H]3NC(=O)N[C@@H]32)CSSC[C@@H](C(=O)NCC(=O)O)NC1=O [IMGpep-4K6R] | strong binding activity | 16000 | 0.00038 | 7.62 | – | binding activity compared with the original peptides IMGpep-1 and IMGpep-4 (human IgG [1]): significantly and drastically increased; binding activity to human IgG1 to IgG4 relative to IMGpep-1 and IMGpep-4 [2]: increase to a greater extent; behaviour of IgG on the column (anti-HER2 human IgG): passed through; immunoprecipitation of MRA antibody (human IgG MRA; flow-through fraction of acid-treated MRA, lane 4): never observed; immunoprecipitation of MRA antibody (human IgG MRA; untreated MRA, lane 1): not immunoprecipitated; antibody sample sufficiently detected (human MRA (IgG); acid-treated MRA (pH 2.8, 40° C., 10 minutes), K6R(A)): ≤ 1.5 ng/mL; IgG-detection sensitivity and intensity after acid treatment (human MRA (IgG); acid-treated MRA, K6R(A)): greatly enhanced; lowest spot of untreated human MRA (IgG) detected (human MRA (IgG); untreated MRA, K6R(N)): ≤ 1.5 ng/mL; overall signal intensity of the detected spots (human MRA (IgG); untreated MRA, K6R(N)): significantly weak
6 | GSGYWRSEWGLSG ({Biotin-Ahx}-GSGYWRSEWGLSG) [IMGpep-1CS] | almost completely lose its binding activity | – | – | – | almost lose the binding activity | increased response signal due to the binding (human IgG [3]; control ligand immobilized, human IgG injected): never observed; detection of spots of untreated human MRA (IgG) (human MRA (IgG); untreated MRA, CS(N)): could not detect any spots
7 | CC(C)C[C@@H]1NC(=O)CNC(=O)[C@H](Cc2c[nH]c3ccccc23)NC(=O)[C@H](CCC(=O)O)NC(=O)[C@H](CO)NC(=O)[C@H](CCCNC(=N)N)NC(=O)[C@H](Cc2c[nH]c3ccccc23)NC(=O)[C@H](Cc2ccc(O)cc2)NC(=O)CNC(=O)[C@@H](NC(=O)CNC(=O)CCCCCNC(=O)CCCC[C@@H]2SC[C@@H]3NC(=O)N[C@@H]32)CSSC[C@@H](C(=O)NCC(=O)O)NC1=O [IMGpep-1] ({Biotin-Ahx}-GCGYWRSEWGLCG-OH; disulfide 2-12) | strong binding activity | 20000 | 0.00034 | 7.77 | specifically bound to human IgG | human IgG trapping efficiency compared with IMGpep-2 (human IgG [4]): clearly higher; immunoprecipitated human IgG (human IgG [4]): clearly observed; binding to the Fc fragment of human IgG (Fc fragment of hIgG): bound to the Fc fragment of human IgG
